molecular target: T1, KRAS^G12C::SOS1 (Homo sapiens, UniProt Q07889); assay: KRAS G12C::SOS1 protein-protein interaction (PPI) inhibition assay (HTRF binding kit)
T1 sequence (Q07889 1-1333): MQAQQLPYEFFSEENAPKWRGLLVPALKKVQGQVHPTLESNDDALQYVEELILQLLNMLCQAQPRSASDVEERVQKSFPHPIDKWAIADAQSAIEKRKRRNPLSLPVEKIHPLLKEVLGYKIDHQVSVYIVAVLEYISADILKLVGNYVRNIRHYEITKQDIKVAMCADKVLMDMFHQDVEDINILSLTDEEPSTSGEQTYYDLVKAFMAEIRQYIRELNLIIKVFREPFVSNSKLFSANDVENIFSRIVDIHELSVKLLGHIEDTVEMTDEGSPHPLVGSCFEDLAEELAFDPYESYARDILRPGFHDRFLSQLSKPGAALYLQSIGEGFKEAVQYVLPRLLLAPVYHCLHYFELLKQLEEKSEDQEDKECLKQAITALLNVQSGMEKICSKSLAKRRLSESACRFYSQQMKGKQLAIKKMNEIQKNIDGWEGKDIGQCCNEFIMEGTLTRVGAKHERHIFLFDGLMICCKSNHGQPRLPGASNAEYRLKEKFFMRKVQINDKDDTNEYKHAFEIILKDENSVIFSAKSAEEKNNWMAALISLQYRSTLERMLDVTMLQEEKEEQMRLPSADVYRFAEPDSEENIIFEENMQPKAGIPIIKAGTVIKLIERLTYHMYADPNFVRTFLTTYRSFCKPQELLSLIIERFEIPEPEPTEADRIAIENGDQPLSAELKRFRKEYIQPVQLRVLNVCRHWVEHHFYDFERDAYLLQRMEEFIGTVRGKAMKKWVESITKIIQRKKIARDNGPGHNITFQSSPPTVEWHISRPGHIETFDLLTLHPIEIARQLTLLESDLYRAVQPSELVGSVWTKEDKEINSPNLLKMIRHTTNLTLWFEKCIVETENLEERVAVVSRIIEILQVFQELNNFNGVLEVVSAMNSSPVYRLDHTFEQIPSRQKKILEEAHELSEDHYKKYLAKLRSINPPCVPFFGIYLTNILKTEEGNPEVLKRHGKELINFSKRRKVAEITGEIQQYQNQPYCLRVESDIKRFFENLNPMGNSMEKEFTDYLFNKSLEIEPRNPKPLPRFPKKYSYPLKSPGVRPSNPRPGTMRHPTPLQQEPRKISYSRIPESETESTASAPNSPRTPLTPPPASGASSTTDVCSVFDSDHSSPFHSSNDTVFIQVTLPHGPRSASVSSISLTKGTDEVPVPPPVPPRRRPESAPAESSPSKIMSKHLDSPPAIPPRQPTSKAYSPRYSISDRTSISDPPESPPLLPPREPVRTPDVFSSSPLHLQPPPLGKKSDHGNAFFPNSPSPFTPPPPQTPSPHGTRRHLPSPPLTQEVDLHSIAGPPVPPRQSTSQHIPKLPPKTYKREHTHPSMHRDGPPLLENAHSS
Procedure: Protein-protein interaction between SOS1 and KRAS^G12C was detected using KRAS G12C/SOS1 binding kit from CISBIO (64KRASG12PEH, CISBIO, FRANCE) according to the manufacturer's assay method. Briefly, the maximum concentration of an inhibitor sample was set to be 3 µM, and the inhibitor sample was diluted 7 times by 1/3, and samples having a total of 8 concentrations were prepared. In HTRF (Homogeneous Time-Resolved Fluorescence) exclusive 96-well low-volume white plate (66PL96005, CISBIO, FRANCE), 2 µL of an inhibitor sample prepared for each concentration, 5 µL of a mixed solution of Tag1-labeled KRAS^G12C protein and GTP diluted with the dilution solution provided by the manufacturer, and 5 µL of Tag2 labeled SOS1 protein were mixed, and added with 8 µL of a diluted solution where anti-Tag1 KRAS^G12C XL665 (HTRF acceptor) labeled antibody and anti-Tag2 SOS1 Terbium cryptate (HTRF donor) labeled antibody were mixed in an equal ratio and incubated at room temperature for 2 h.

Compared with C[C@@H](NC(=O)c1ccc(=O)n(C)n1)c1cc(N)cc(C(F)(F)F)c1 [Example 228, N-[(1R)-1-[3-amino-5-(trifluoromethyl)phenyl]ethyl]-1-methyl-6-oxo-pyridazine-3-carboxamide], C[C@@H](NC(=O)c1ccc(=O)n(CCN(C)C)n1)c1cc(N)cc(C(F)(F)F)c1 [Example 229, N-[(1R)-1-[3-amino-5-(trifluoromethyl)phenyl]ethyl]-1-[2-(dimethylamino)ethyl]-6-oxo-pyridazine-3-carboxamide] is higher in IC50: < 1000 nM for the first, 1000 to 10000 nM for the second.

C[C@@H](NC(=O)c1ccc(=O)n(-c2cccc(C(=O)N3CCCC3)c2F)n1)c1cc(N)cc(C(F)(F)F)c1 [Example 230] and C[C@@H](NC(=O)c1ccc(=O)n(-c2cccc(C(=O)N3CCOCC3)c2F)n1)c1cc(N)cc(C(F)(F)F)c1 [Example 233, (R)-N-(1-(3-amino-5-(trifluoromethyl)phenyl)ethyl)-1-(2-fluoro-3-(morpholine-4-carbonyl)phenyl)-6-oxo-1,6-dihydropyridazine-3-carboxamide] cannot be ordered by IC50: < 1000 nM for the first, < 1000 nM for the second.

CNC(=O)c1cccc(-n2nc(C(=O)N[C@H](C)c3cc(N)cc(C(F)(F)F)c3)ccc2=O)c1F [Example 231, (R)-N-(1-(3-amino-5-(trifluoromethyl)phenyl)ethyl)-1-(2-fluoro-3-(methylcarbamoyl)phenyl)-6-oxo-1,6-dihydropyridazine-3-carboxamide] and CCNC(=O)c1cccc(-n2nc(C(=O)N[C@H](C)c3cc(N)cc(C(F)(F)F)c3)ccc2=O)c1F [Example 234, (R)-N-(1-(3-amino-5-(trifluoromethyl)phenyl)ethyl)-1-(3-(ethylcarbamoyl)-2-fluorophenyl)-6-oxo-1,6-dihydropyridazine-3-carboxamide] cannot be ordered by IC50: < 1000 nM for the first, < 1000 nM for the second.

COCCNC(=O)c1cccc(-n2nc(C(=O)N[C@H](C)c3cc(N)cc(C(F)(F)F)c3)ccc2=O)c1F [Example 232, (R)-N-(1-(3-amino-5-(trifluoromethyl)phenyl)ethyl)-1-(2-fluoro-3-((2-methoxyethyl)carbamoyl)phenyl)-6-oxo-1,6-dihydropyridazine-3-carboxamide] and C[C@@H](NC(=O)c1ccc(=O)n(-c2cccc(C(=O)NCCN(C)C)c2)n1)c1cc(N)cc(C(F)(F)F)c1 [Example 251, N-[(1R)-1-[3-amino-5-(trifluoromethyl)phenyl]ethyl]-1-[3-[2-(dimethylamino)ethylcarbamoyl]phenyl]-6-oxo-pyridazine-3-carboxamide] cannot be ordered by IC50: < 1000 nM for the first, < 1000 nM for the second.

First: C[C@@H](NC(=O)c1ccc(=O)n(-c2cccc(-c3nnco3)c2)n1)c1cc(N)cc(C(F)(F)F)c1 [Example 235, N-[(1R)-1-[3-amino-5-(trifluoromethyl)phenyl]ethyl]-1-[3-(1,3,4-oxadiazol-2-yl)phenyl]-6-oxo-1,6-dihydropyridazine-3-carboxamide]
Second: C[C@@H](NC(=O)c1ccc(=O)n(-c2cccc(-c3ncco3)c2)n1)c1cc(N)cc(C(F)(F)F)c1 [Example 239, N-[(1R)-1-[3-amino-5-(trifluoromethyl)phenyl]ethyl]-1-[3-(1,3-oxazol-2-yl)phenyl]-6-oxo-1,6-dihydropyridazine-3-carboxamide]
The IC50 of the first is lower: < 1000 nM for the first, 1000 to 10000 nM for the second. The first is the more potent here.

C[C@@H](NC(=O)c1ccc(=O)n(-c2ccc3cnn(C)c3c2)n1)c1cc(N)cc(C(F)(F)F)c1 [Example 236, N-[(1R)-1-[3-amino-5-(trifluoromethyl)phenyl]ethyl]-1-(1-methyl-1H-indazol-6-yl)-6-oxo-1,6-dihydropyridazine-3-carboxamide] and C[C@@H](NC(=O)c1ccc(=O)n(-c2ccc3nnn(C)c3c2)n1)c1cc(N)cc(C(F)(F)F)c1 [Example 238, N-[(1R)-1-[3-amino-5-(trifluoromethyl)phenyl]ethyl]-1-(1-methyl-1H-1,2,3-benzotriazol-6-yl)-6-oxo-1,6-dihydropyridazine-3-carboxamide] cannot be ordered by IC50: < 1000 nM for the first, < 1000 nM for the second.

[2H]C([2H])([2H])n1nncc1-c1cccc(-n2nc(C(=O)N[C@H](C)c3cc(N)cc(C(F)(F)F)c3)ccc2=O)c1 [Example 237, N-[(1R)-1-[3-amino-5-(trifluoromethyl)phenyl]ethyl]-1-[3-(3-(trideuteriomethyl)triazol-4-yl)phenyl]-6-oxo-pyridazine-3-carboxamide] and C[C@@H](NC(=O)c1ccc(=O)n(-c2cccc(C(N)=O)c2)n1)c1cc(N)cc(C(F)(F)F)c1 [Example 252, N-[(1R)-1-[3-amino-5-(trifluoromethyl)phenyl]ethyl]-1-(3-carbamoylphenyl)-6-oxo-pyridazine-3-carboxamide] cannot be ordered by IC50: < 1000 nM for the first, < 1000 nM for the second.

C[C@@H](NC(=O)c1ccc(=O)n(-c2ccc3cnn(C)c3c2F)n1)c1cc(N)cc(C(F)(F)F)c1 [Example 240, N-[(1R)-1-[3-amino-5-(trifluoromethyl)phenyl]ethyl]-1-(7-fluoro-1-methyl-1H-indazol-6-yl)-6-oxo-1,6-dihydropyridazine-3-carboxamide] and C[C@@H](NC(=O)c1ccc(=O)n(-c2ccccc2OC(F)F)n1)c1cc(N)cc(C(F)(F)F)c1 [Example 247, N-[(1R)-1-[3-amino-5-(trifluoromethyl)phenyl]ethyl]-1-[2-(difluoromethoxy)phenyl]-6-oxo-pyridazine-3-carboxamide] cannot be ordered by IC50: < 1000 nM for the first, < 1000 nM for the second.

C[C@@H](NC(=O)c1cc(Br)c(=O)n(-c2ccccc2)n1)c1cc(N)cc(C(F)(F)F)c1 [Example 241, (R)-N-(1-(3-amino-5-(trifluoromethyl)phenyl)ethyl)-5-bromo-6-oxo-1-phenyl-1,6-dihydropyridazine-3-carboxamide] and CNC(=O)c1cccc(-n2nc(C(=O)N[C@H](C)c3cc(N)cc(C(F)(F)F)c3)ccc2=O)c1 [Example 253, N-[(1R)-1-[3-amino-5-(trifluoromethyl)phenyl]ethyl]-1-[3-(methylcarbamoyl)phenyl]-6-oxo-pyridazine-3-carboxamide] cannot be ordered by IC50: < 1000 nM for the first, < 1000 nM for the second.

COCC(F)(F)c1cccc([C@@H](C)NC(=O)c2ccc(=O)n(-c3ccccc3F)n2)c1F [Example 242, N-[(1R)-1-[3-(1,1-difluoro-2-methoxy-ethyl)-2-fluoro-phenyl]ethyl]-1-(2-fluorophenyl)-6-oxo-pyridazine-3-carboxamide] and C[C@@H](NC(=O)c1ccc(=O)n(-c2ccccc2F)n1)c1cccc(C(F)(F)CN)c1F [Example 243, N-[(1R)-1-[3-(2-amino-1,1-difluoro-ethyl)-2-fluoro-phenyl]ethyl]-1-(2-fluorophenyl)-6-oxo-pyridazine-3-carboxamide] cannot be ordered by IC50: < 1000 nM for the first, < 1000 nM for the second.

C[C@@H](NC(=O)c1ccc(=O)n(-c2ccccc2F)n1)c1cc(N)cc(C(F)(F)F)c1F [Example 245, N-[(1R)-1-[5-amino-2-fluoro-3-(trifluoromethyl)phenyl]ethyl]-1-(2-fluorophenyl)-6-oxo-pyridazine-3-carboxamide] and Cc1c([C@@H](C)NC(=O)c2ccc(=O)n(-c3ccccc3F)n2)cccc1C(F)(F)CO [Example 246, N-[(1R)-1-[3-(1,1-difluoro-2-hydroxy-ethyl)-2-methyl-phenyl]ethyl]-1-(2-fluorophenyl)-6-oxo-pyridazine-3-carboxamide] cannot be ordered by IC50: < 1000 nM for the first, < 1000 nM for the second.

C[C@@H](NC(=O)c1ccc(=O)n(-c2cccc(C(=O)OC(C)(C)C)c2)n1)c1cc(N)cc(C(F)(F)F)c1 [Example 248, Tert-butyl 3-[3-[[(1R)-1-[3-amino-5-(trifluoromethyl)phenyl]ethyl]carbamoyl]-6-oxo-pyridazin-1-yl]benzoate] and C[C@@H](NC(=O)c1ccc(=O)n(-c2cccc(C(=O)N3CCNCC3)c2)n1)c1cc(N)cc(C(F)(F)F)c1 [Example 250, N-[(1R)-1-[3-amino-5-(trifluoromethyl)phenyl]ethyl]-6-oxo-1-[3-(piperazine-1-carbonyl)phenyl]pyridazine-3-carboxamide] cannot be ordered by IC50: < 1000 nM for the first, < 1000 nM for the second.

With C[C@@H](NC(=O)c1ccc(=O)n(-c2cccc(C(=O)N3CCOCC3)c2)n1)c1cc(N)cc(C(F)(F)F)c1 [Example 254, N-[(1R)-1-[3-amino-5-(trifluoromethyl)phenyl]ethyl]-1-[3-(morpholine-4-carbonyl)phenyl]-6-oxo-pyridazine-3-carboxamide] the IC50 was < 1000 nM.

From patent EP4667458A1 (Kanaph Therapeutics Inc., priority 2023, dated 2024)
